Data reported in ChEMBL document CHEMBL1123432, “Methotrexate analogues. 28. Synthesis and biological evaluation of new gamma-monoamides of aminopterin and methotrexate” (J Med Chem, 1986).

Columns and labels:
[1] = species: Mus musculus; assay: Compound was tested against weight change in mice with L1210 leukemia cells on 7 th Day at Dose 0.5 mg / kg; assay type: functional; conditions: at 0.5 mg/kg
[2] = biological target: T1, Dihydrofolate reductase (Mus musculus) (UniProt P00375); conditions: L1210
T1 sequence (whole entry): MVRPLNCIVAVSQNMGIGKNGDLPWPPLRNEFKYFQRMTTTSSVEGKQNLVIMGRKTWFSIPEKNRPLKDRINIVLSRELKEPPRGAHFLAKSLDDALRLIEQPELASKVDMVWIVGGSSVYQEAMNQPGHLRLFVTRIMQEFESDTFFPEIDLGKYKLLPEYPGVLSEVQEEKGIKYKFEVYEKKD
Description: Compound was tested for inhibition of the enzyme DiHydroFolate Reductase (DHFR) from murine L1210 leukemia cells

[3] = species: Mus musculus; assay: Compound was tested against weight change in mice with L1210 leukemia cells on 7 th Day at Dose 1 mg / kg; assay type: functional; conditions: at 1 mg/kg
[4] = species: Homo sapiens; assay: Compound was tested for its inhibitory concentration against human leukemic lymphoblasts (CEM Cells); assay type: functional; conditions: CCRF-CEM
[5] = system: Mus musculus; assay: Median Survival days of mice infected with L1210 leukemia cells at dose 1 mg/kg relative to that of 9 days for control; assay type: functional
[6] = system: L1210; assay: Compound was tested for its inhibitory concentration to inhibit the growth of wild type L1210 cells.; assay type: functional, cell-based, Mus musculus
[7] = biological target: T2, Dihydrofolate reductase (Mus musculus, UniProt P00375); assay: biochemical
T2 sequence (P00375 whole entry): T1 sequence (whole entry)
Description: Compound was tested for its inhibitory concentration to inhibit the enzyme Dihydro Folate Reductase (DHFR) from murine L1210 leukemia cells.

[8] = system: Mus musculus; assay: Median Survival days of mice infected with L1210 leukemia cells at dose 0.5 mg/kg relative to that of 9 days for control; assay type: functional
[9] = system: Mus musculus; assay: Increase in life span of mice with L1210 leukemia cells at a dose of 1 mg/kg; assay type: functional
[10] = system: Mus musculus; assay: Increase in life span of mice with L1210 leukemia cells at a dose of 0.5 mg/kg; assay type: functional
[11] = species: Homo sapiens; assay: Compound was tested for its inhibitory concentration against human leukemic lymphoblasts (CEM Cells) and a resistant subline (CEM / MTX).; assay type: functional; conditions: CCRF-CEM
[12] = system: Mus musculus; assay: Increase in life span of mice with L1210 leukemia cells at a dose of 80 mg/kg; Toxic; assay type: functional, organism-based; design: dose 80 mg/kg
[13] = system: Mus musculus; assay: Median Survival days of mice infected with L1210 leukemia cells at dose 20 mg/kg relative to that of 9 days for control; assay type: functional
[14] = system: Mus musculus; assay: Median Survival days of mice infected with L1210 leukemia cells at dose 80 mg/kg relative to that of 9 days for control; Toxic; assay type: functional, organism-based; design: dose 80 mg/kg
[15] = species: Mus musculus; assay: Compound was tested against weight change in mice with L1210 leukemia cells on 10 th Day at Dose 80 mg / kg; conditions: at 80 mg/kg
[16] = species: Mus musculus; assay: Compound was tested against weight change in mice with L1210 leukemia cells on 10 th Day at Dose 40 mg / kg; conditions: at 40 mg/kg
[17] = species: Homo sapiens; assay: Compound was tested for its inhibitory concentration against human leukemic lymphoblasts ( CEM Cells ).; assay type: functional; conditions: CCRF-CEM
[18] = system: Mus musculus; assay: Median Survival days of mice infected with L1210 leukemia cells at dose 40 mg/kg relative to that of 9 days for control; assay type: functional
[19] = species: Mus musculus; assay: Compound was tested against weight change in mice with L1210 leukemia cells on 10 th Day at Dose 20 mg / kg; conditions: at 20 mg/kg
[20] = system: L1210; assay: Compound was tested for its inhibitory concentration to inhibit the growth of wild type L1210 cells and a subline ( L1210 / R81 ).; assay type: functional, cell-based; conditions: Mus musculus
[21] = system: Mus musculus; assay: Increase in life span of mice with L1210 leukemia cells at a dose of 40 mg/kg; assay type: functional
[22] = system: Mus musculus; assay: Increase in life span of mice with L1210 leukemia cells at a dose of 20 mg/kg; assay type: functional

Which results are given for `Nc1nc(N)c2nc(CNc3ccc(C(=O)N[C@@H](CCC(=O)O)C(=O)O)cc3)cnc2n1` [AMINOPTERIN]?
Weight change [1]: -4%; IC50/[E] [2]: 0.5; Weight change [3]: -5%; IC50 [4]: 1 nM; Survival [5]: 20 days; IC50 ([6]; Mus musculus, L1210): 3 nM; IC50 [7]: 20 nM; Survival [8]: 17 days; ILS at 1 mg/kg [9]: 122%; ILS at 0.5 mg/kg [10]: 89%; IC50 [11]: 320 nM

`Nc1nc(N)c2nc(CNc3ccc(C(=O)NC(CCC(=O)NCc4ccccc4)C(=O)O)cc3)cnc2n1` (configuration not stated) was tested. Which IC50/[E] [2] did it give?
Its IC50/[E] is 2.2.

And the ILS [12]?
The ILS was “Toxic”.

And the Survival [13]?
The Survival was 12 days.

And the IC50 ([6]; Mus musculus, L1210)?
Its IC50 is 5 nM.

And the IC50 ([6]; l1210)?
The IC50 was 7.1 nM.

And the Survival [14]?
Its Survival is “Toxic”.

What about the Weight change [15] of the same compound?
The Weight change was -26%.

And the IC50 [7]?
The IC50 was 87 nM.

What about the Weight change [16] of the same compound?
The Weight change was 3%.

And the IC50 [17]?
Its IC50 is 65 nM.

And the Survival [18]?
Its Survival is 14 days.

What about the Weight change [19] of the same compound?
The Weight change was 13%.

What about the IC50 [20] of the same compound?
Its IC50 is 17000 nM.

What about the ILS at 40 mg/kg [21] of the same compound?
Its ILS at 40 mg/kg is 56%.

What about the ILS at 20 mg/kg [22] of the same compound?
Its ILS at 20 mg/kg is 33%.

What about the IC50 [11] of the same compound?
The IC50 was 6000 nM.
